Laboratory results taken from patent US20170057954A1, “SUBSTITUTED IMIDAZO[1,2-A]PYRIDINECARBOXAMIDES AND THEIR USE” (Bayer Pharma Aktiengesellschaft, priority 2014, published 2017).

The compounds below were run on recombinant guanylate cyclase reporter cell line (assay: Effect on a recombinant guanylate cyclase reporter cell line). Settings: in some cases mean values for individual determinations, read-out: MEC (minimum effective concentration).
Format: cell-based
Procedure: B-2. Effect on a Recombinant Guanylate Cyclase Reporter Cell Line
The cellular activity of the compounds according to the invention is determined using a recombinant guanylate cyclase reporter cell line, as described in F. Wunder et al., Anal. Biochem. 339, 104-112 (2005).
Representative MEC values (MEC=minimum effective concentration) for the compounds of the invention are shown in the table below (in some cases as mean values for individual determinations): […]

For `Cc1cc(OCc2c(F)cccc2F)c2nc(C)c(C(=O)NOCCO)n2c1` [Example 1, 8-[(2,6-Difluorobenzyl)oxy]-N-(2-hydroxyethoxy)-2,6-dimethylimidazo[1,2-a]pyridine-3-carboxamide], which minimal effective concentration is on record?
The minimal effective concentration was 0.3 µM.

How did the minimal effective concentration turn out when `CCc1nc2c(OCc3c(F)cccc3F)cc(C)cn2c1C(=O)NN1CCOCC1` [Example 20] was run?
Its minimal effective concentration is 1 µM.

With `Cc1cc(OCc2c(F)cccc2F)c2nc(C)c(C(=O)NOCCN)n2c1` [Example 7, N-(2-Aminoethoxy)-8-[(2,6-difluorobenzyl)oxy]-2,6-dimethylimidazo[1,2-a]pyridine-3-carboxamide hydrate] as the compound, how does the minimal effective concentration read?
The minimal effective concentration was 1 µM.

With `Cc1cc(OCc2c(F)cccc2F)c2nc(C)c(C(=O)NNCCc3ccccc3)n2c1` [Example 49] as the compound, how does the minimal effective concentration read?
Its minimal effective concentration is 1 µM.

With `CCCCNNC(=O)c1c(C)nc2c(OCc3c(F)cccc3F)cc(C)cn12` [Example 63] as the compound, how does the minimal effective concentration read?
Its minimal effective concentration is 3 µM.

For `Cc1cc(OCc2c(F)cccc2F)c2nc(C)c(C(=O)NNCc3ccccc3)n2c1` [Example 67], which minimal effective concentration is on record?
The minimal effective concentration was 1 µM.

Which minimal effective concentration does the source give for `Cc1cc(OCc2c(F)cccc2F)c2nc(C)c(C(=O)NNc3ccc(F)cc3)n2c1` [Example 55] here?
The minimal effective concentration was 0.1 µM.

`COc1cc(OCc2c(F)cccc2F)c2nc(C)c(C(=O)NN3CCOCC3)n2c1` [Example 21] was tested. Which minimal effective concentration did it give?
Its minimal effective concentration is 3 µM.

With `O=C(NOCCO)c1cnc2c(OCc3c(F)cccc3F)cccn12` [Example 14] as the compound, how does the minimal effective concentration read?
The minimal effective concentration was 10 µM.

How did the minimal effective concentration turn out when `Cc1cc(OCc2c(F)cccc2F)c2nc(C)c(C(=O)NN(C)c3ccccc3)n2c1` [Example 51] was run?
Its minimal effective concentration is 0.1 µM.

Which minimal effective concentration does the source give for `Cc1cc(OCc2c(F)cccc2F)c2nc(C)c(C(=O)NNc3cccc(C(F)(F)F)c3)n2c1` [Example 45] here?
The minimal effective concentration was 0.3 µM.

How did the minimal effective concentration turn out when `Cc1cc(OCc2c(F)cccc2F)c2nc(C)c(C(=O)NNc3ccc(OC(F)(F)F)cc3)n2c1` [Example 48] was run?
The minimal effective concentration was 1 µM.
